Reference: ChEMBL document CHEMBL5724806, “Unraveling interindividual differences and functional consequences of gut microbial metabolism of immunosuppressants” (2024)

Key:
Format in all cases: ADME
[1] = (§1) The drug is tested on Alloscardovia omnicolens strain: DSM21503 for biotransformation under anaerobic condition. The drug concentrations were measured over 6 timepoints collected between 0 and 12 hours of incubation by liquid-chromatography-coupled mass spectrometry (LC–MS); design: dose 5 uM, timepoint 0, 1.5, 3, 6, 9, 12 hours; settings: 5 µM
[2] = The drug is tested on Bacteroides fragilis strain: DSM2151 for biotransformation under anaerobic condition. The drug concentrations were measured over 6 timepoints collected between 0 and 12 hours of incubation by liquid-chromatography-coupled mass spectrometry (LC–MS); design: dose 5 uM, timepoint 0, 1.5, 3, 6, 9, 12 hours; settings: 5 µM
[3] = The drug is tested on Bacteroides thetaiotaomicron strain: DSM2079 for biotransformation under anaerobic condition. The drug concentrations were measured over 6 timepoints collected between 0 and 12 hours of incubation by liquid-chromatography-coupled mass spectrometry (LC–MS); design: dose 5 uM, timepoint 0, 1.5, 3, 6, 9, 12 hours; settings: 5 µM
[4] = The drug is tested on Bacteroides uniformis strain: DSM6597 for biotransformation under anaerobic condition. The drug concentrations were measured over 6 timepoints collected between 0 and 12 hours of incubation by liquid-chromatography-coupled mass spectrometry (LC–MS); design: dose 5 uM, timepoint 0, 1.5, 3, 6, 9, 12 hours; settings: 5 µM
[5] = The drug is tested on Prevotella copri strain: DSM18205 for biotransformation under anaerobic condition. The drug concentrations were measured over 6 timepoints collected between 0 and 12 hours of incubation by liquid-chromatography-coupled mass spectrometry (LC–MS); design: dose 5 uM, timepoint 0, 1.5, 3, 6, 9, 12 hours; settings: segatella copri, 5 µM
[6] = The drug is tested on Clostridium scindens strain: DSM5676 for biotransformation under anaerobic condition. The drug concentrations were measured over 6 timepoints collected between 0 and 12 hours of incubation by liquid-chromatography-coupled mass spectrometry (LC–MS); design: dose 5 uM, timepoint 0, 1.5, 3, 6, 9, 12 hours; settings: 5 µM
[7] = The drug is tested on Dorea formicigenerans strain: DSM3992 for biotransformation under anaerobic condition. The drug concentrations were measured over 6 timepoints collected between 0 and 12 hours of incubation by liquid-chromatography-coupled mass spectrometry (LC–MS); design: dose 5 uM, timepoint 0, 1.5, 3, 6, 9, 12 hours; settings: 5 µM
[8] = The drug is tested on Faecalibacterium prausnitzii strain: DSM17677 for biotransformation under anaerobic condition. The drug concentrations were measured over 6 timepoints collected between 0 and 12 hours of incubation by liquid-chromatography-coupled mass spectrometry (LC–MS); design: dose 5 uM, timepoint 0, 1.5, 3, 6, 9, 12 hours; settings: faecalibacterium duncaniae, 5 µM
[9] = The drug is tested on Lactobacillus ruminis strain: ATCC25644 for biotransformation under anaerobic condition. The drug concentrations were measured over 6 timepoints collected between 0 and 12 hours of incubation by liquid-chromatography-coupled mass spectrometry (LC–MS); design: dose 5 uM, timepoint 0, 1.5, 3, 6, 9, 12 hours; settings: ligilactobacillus ruminis, 5 µM
[10] = The drug is tested on Roseburia intestinalis strain: DSM14610 for biotransformation under anaerobic condition. The drug concentrations were measured over 6 timepoints collected between 0 and 12 hours of incubation by liquid-chromatography-coupled mass spectrometry (LC–MS); design: dose 5 uM, timepoint 0, 1.5, 3, 6, 9, 12 hours; settings: 5 µM
[11] = The drug is tested on Streptococcus salivarius strain: DSM20560 for biotransformation under anaerobic condition. The drug concentrations were measured over 6 timepoints collected between 0 and 12 hours of incubation by liquid-chromatography-coupled mass spectrometry (LC–MS); design: dose 5 uM, timepoint 0, 1.5, 3, 6, 9, 12 hours; settings: 5 µM
[12] = The drug is tested on Enterococcus faecalis strain: ATCC29212 for biotransformation under anaerobic condition. The drug concentrations were measured over 6 timepoints collected between 0 and 12 hours of incubation by liquid-chromatography-coupled mass spectrometry (LC–MS); design: dose 5 uM, timepoint 0, 1.5, 3, 6, 9, 12 hours; settings: 5 µM
[13] = (§2) The drug is tested on Actinomyces graevenitzii strain: DSM15540 for biotransformation under microaerobic condition. The drug concentrations were measured over 6 timepoints collected between 0 and 12 hours of incubation by liquid-chromatography-coupled mass spectrometry (LC–MS); design: dose 5 uM, timepoint 0, 1.5, 3, 6, 9, 12 hours; settings: 5 µM
[14] = The drug is tested on Alloscardovia omnicolens strain: DSM21503 for biotransformation under microaerobic condition. The drug concentrations were measured over 6 timepoints collected between 0 and 12 hours of incubation by liquid-chromatography-coupled mass spectrometry (LC–MS); design: dose 5 uM, timepoint 0, 1.5, 3, 6, 9, 12 hours; settings: 5 µM
[15] = The drug is tested on Capnocytophaga ochracea strain: DSM7271 for biotransformation under microaerobic condition. The drug concentrations were measured over 6 timepoints collected between 0 and 12 hours of incubation by liquid-chromatography-coupled mass spectrometry (LC–MS); design: dose 5 uM, timepoint 0, 1.5, 3, 6, 9, 12 hours; settings: 5 µM
[16] = The drug is tested on Lactobacillus ruminis strain: ATCC25644 for biotransformation under microaerobic condition. The drug concentrations were measured over 6 timepoints collected between 0 and 12 hours of incubation by liquid-chromatography-coupled mass spectrometry (LC–MS); design: dose 5 uM, timepoint 0, 1.5, 3, 6, 9, 12 hours; settings: ligilactobacillus ruminis, 5 µM
[17] = The drug is tested on Streptococcus mitis strain: DSM12643 for biotransformation under microaerobic condition. The drug concentrations were measured over 6 timepoints collected between 0 and 12 hours of incubation by liquid-chromatography-coupled mass spectrometry (LC–MS); design: dose 5 uM, timepoint 0, 1.5, 3, 6, 9, 12 hours; settings: 5 µM
[18] = The drug is tested on Enterococcus faecalis strain: ATCC29212 for biotransformation under microaerobic condition. The drug concentrations were measured over 6 timepoints collected between 0 and 12 hours of incubation by liquid-chromatography-coupled mass spectrometry (LC–MS); design: dose 5 uM, timepoint 0, 1.5, 3, 6, 9, 12 hours; settings: 5 µM
[19] = as §1, with “the gut metagenome community of A-01 with ENA study accession number: PRJEB31790” for “Alloscardovia omnicolens strain: DSM21503”, “7” for “6”; design: dose 5 uM, timepoint 0, 0.75, 1.5, 3, 6, 9, 12 hours; settings: 5 µM
[20] = as §1, with “the gut metagenome community of A-04 with ENA study accession number: PRJEB31790” for “Alloscardovia omnicolens strain: DSM21503”, “7” for “6”; design: dose 5 uM, timepoint 0, 0.75, 1.5, 3, 6, 9, 12 hours; settings: 5 µM
[21] = as §1, with “the gut metagenome community of A-05 with ENA study accession number: PRJEB31790” for “Alloscardovia omnicolens strain: DSM21503”, “7” for “6”; design: dose 5 uM, timepoint 0, 0.75, 1.5, 3, 6, 9, 12 hours; settings: 5 µM
[22] = as §1, with “the gut metagenome community of P-01 with ENA study accession number: PRJEB31790” for “Alloscardovia omnicolens strain: DSM21503”, “7” for “6”; design: dose 5 uM, timepoint 0, 0.75, 1.5, 3, 6, 9, 12 hours; settings: 5 µM
[23] = as §1, with “the gut metagenome community of P-02 with ENA study accession number: PRJEB31790” for “Alloscardovia omnicolens strain: DSM21503”, “7” for “6”; design: dose 5 uM, timepoint 0, 0.75, 1.5, 3, 6, 9, 12 hours; settings: 5 µM
[24] = as §1, with “the gut metagenome community of T-05 with ENA study accession number: PRJEB31790” for “Alloscardovia omnicolens strain: DSM21503”, “7” for “6”; design: dose 5 uM, timepoint 0, 0.75, 1.5, 3, 6, 9, 12 hours; settings: 5 µM
[25] = as §2, with “the gut metagenome community of A-04 with ENA study accession number: PRJEB31790” for “Actinomyces graevenitzii strain: DSM15540”, “7” for “6”; design: dose 5 uM, timepoint 0, 0.75, 1.5, 3, 6, 9, 12 hours; settings: 5 µM
[26] = as §2, with “the gut metagenome community of A-07 with ENA study accession number: PRJEB31790” for “Actinomyces graevenitzii strain: DSM15540”, “7” for “6”; design: dose 5 uM, timepoint 0, 0.75, 1.5, 3, 6, 9, 12 hours; settings: 5 µM
[27] = as §2, with “the gut metagenome community of A-09 with ENA study accession number: PRJEB31790” for “Actinomyces graevenitzii strain: DSM15540”, “7” for “6”; design: dose 5 uM, timepoint 0, 0.75, 1.5, 3, 6, 9, 12 hours; settings: 5 µM
[28] = as §2, with “the gut metagenome community of A-10 with ENA study accession number: PRJEB31790” for “Actinomyces graevenitzii strain: DSM15540”, “7” for “6”; design: dose 5 uM, timepoint 0, 0.75, 1.5, 3, 6, 9, 12 hours; settings: 5 µM
[29] = as §2, with “the gut metagenome community of P-02 with ENA study accession number: PRJEB31790” for “Actinomyces graevenitzii strain: DSM15540”, “7” for “6”; design: dose 5 uM, timepoint 0, 0.75, 1.5, 3, 6, 9, 12 hours; settings: 5 µM
[30] = as §2, with “the gut metagenome community of T-05 with ENA study accession number: PRJEB31790” for “Actinomyces graevenitzii strain: DSM15540”, “7” for “6”; design: dose 5 uM, timepoint 0, 0.75, 1.5, 3, 6, 9, 12 hours; settings: 5 µM

Bacterial Biotransformation [1]	Bacterial Biotransformation [2]	Bacterial Biotransformation [3]	Bacterial Biotransformation [4]	Bacterial Biotransformation [5]	Bacterial Biotransformation [7]	Bacterial Biotransformation [8]	Bacterial Biotransformation [9]	Bacterial Biotransformation [10]	Bacterial Biotransformation [11]	Bacterial Biotransformation [12]	Bacterial Biotransformation [13]	Bacterial Biotransformation [14]	Bacterial Biotransformation [15]	Bacterial Biotransformation [16]	Bacterial Biotransformation [17]	Bacterial Biotransformation [18]	Bacterial Biotransformation [19]	Bacterial Biotransformation [20]	Bacterial Biotransformation [21]	SMILES	further results
Compound NOT metabolized	Compound NOT metabolized	Compound metabolized	Compound NOT metabolized	Compound metabolized	Compound NOT metabolized	Compound NOT metabolized	Compound NOT metabolized	Compound NOT metabolized	Compound NOT metabolized	Compound NOT metabolized	Compound NOT metabolized	Compound NOT metabolized	Compound NOT metabolized	Compound NOT metabolized	Compound NOT metabolized	Compound metabolized	Compound NOT metabolized	Compound NOT metabolized	Compound NOT metabolized	CCC(C)(C)C(=O)O[C@H]1C[C@@H](C)C=C2C=C[C@H](C)[C@H](CC[C@@H]3C[C@@H](O)CC(=O)O3)[C@H]21 [SIMVASTATIN]	Bacterial Biotransformation [6]: Compound metabolized; Bacterial Biotransformation [22]: Compound NOT metabolized; Bacterial Biotransformation [23]: Compound NOT metabolized; Bacterial Biotransformation [24]: Compound NOT metabolized; Bacterial Biotransformation [25]: Compound NOT metabolized; Bacterial Biotransformation [26]: Compound NOT metabolized; Bacterial Biotransformation [27]: Compound NOT metabolized; Bacterial Biotransformation [28]: Compound NOT metabolized; Bacterial Biotransformation [29]: Compound NOT metabolized; Bacterial Biotransformation [30]: Compound NOT metabolized
Compound NOT metabolized	Compound NOT metabolized	Compound NOT metabolized	Compound NOT metabolized	Compound NOT metabolized	Compound NOT metabolized	Compound NOT metabolized	Compound NOT metabolized	Compound NOT metabolized	Compound NOT metabolized	Compound NOT metabolized	Compound NOT metabolized	Compound NOT metabolized	Compound NOT metabolized	Compound NOT metabolized	Compound NOT metabolized	Compound NOT metabolized	Compound NOT metabolized	Compound NOT metabolized	Compound NOT metabolized	CC(C)NCC(O)COc1ccc(CC(N)=O)cc1 (centres undefined) [ATENOLOL]	Bacterial Biotransformation [6]: Compound NOT metabolized; Bacterial Biotransformation [22]: Compound NOT metabolized; Bacterial Biotransformation [23]: Compound NOT metabolized; Bacterial Biotransformation [24]: Compound NOT metabolized; Bacterial Biotransformation [25]: Compound NOT metabolized; Bacterial Biotransformation [26]: Compound NOT metabolized; Bacterial Biotransformation [27]: Compound NOT metabolized; Bacterial Biotransformation [28]: Compound NOT metabolized; Bacterial Biotransformation [29]: Compound NOT metabolized; Bacterial Biotransformation [30]: Compound NOT metabolized

SMILES	Bacterial Biotransformation [1]	Bacterial Biotransformation [2]	Bacterial Biotransformation [3]	Bacterial Biotransformation [4]	Bacterial Biotransformation [5]	Bacterial Biotransformation [7]	Bacterial Biotransformation [8]	Bacterial Biotransformation [9]	Bacterial Biotransformation [10]	Bacterial Biotransformation [11]	Bacterial Biotransformation [12]	Bacterial Biotransformation [13]	Bacterial Biotransformation [14]	Bacterial Biotransformation [15]	Bacterial Biotransformation [16]	Bacterial Biotransformation [17]	Bacterial Biotransformation [18]	Bacterial Biotransformation [19]	Bacterial Biotransformation [20]	Bacterial Biotransformation [21]	further results
CCOC(=O)C1=C(COCCN)NC(C)=C(C(=O)OC)C1c1ccccc1Cl (centres undefined) [AMLODIPINE]	Compound NOT metabolized	Compound NOT metabolized	Compound NOT metabolized	Compound NOT metabolized	Compound NOT metabolized	Compound NOT metabolized	Compound NOT metabolized	Compound NOT metabolized	Compound NOT metabolized	Compound NOT metabolized	Compound NOT metabolized	Compound NOT metabolized	Compound NOT metabolized	Compound NOT metabolized	Compound NOT metabolized	Compound NOT metabolized	Compound metabolized	Compound NOT metabolized	Compound NOT metabolized	Compound NOT metabolized	Bacterial Biotransformation [22]: Compound NOT metabolized; Bacterial Biotransformation [23]: Compound NOT metabolized; Bacterial Biotransformation [24]: Compound NOT metabolized; Bacterial Biotransformation [25]: Compound NOT metabolized; Bacterial Biotransformation [26]: Compound NOT metabolized; Bacterial Biotransformation [27]: Compound NOT metabolized; Bacterial Biotransformation [28]: Compound NOT metabolized; Bacterial Biotransformation [29]: Compound NOT metabolized; Bacterial Biotransformation [30]: Compound NOT metabolized
